The structures appear in SMILES notation.

In assay [1] the test system is DiFi cells. Nature of the assay: Viability of DiFi cells with EGFR inhibitors and fibroblast conditioned medium. To be noted: gefitinib 0.5 μM or cetuximab 0.5 μg/ml, 72 hours. The class given is cell-based. How it is done:
Figure 6 Fibroblasts inhibit the proapoptotic activity of EGFRi in an HGF-dependent manner A. and B. DiFi cells were treated with gefitinib (0.5 μM) or cetuximab (0.5 μg/ml) in the absence or the presence of conditioned medium from fibroblasts and SRI 31215 and JNJ 38877605 as indicated. The viability was determined after 72 hours. In B, fibroblast conditioned medium was incubated with anti HGF or anti-IL1β antibodies. C. and D. DiFi cells were treated with gefitinib (C) or cetuximab (D) in the presence of conditioned medium from fibroblasts and inhibitors of HGF/MET signaling as indicated for 18h. Caspase activity was assessed by the Caspase-Glo 3/7 Assay from Promega.
Cell titer-glo luminescent cell viability assay kit was purchased from Promega. […] For clonogenic assay, cells were seeded in 6-well plates at a density of 400 cells per well, serum starved overnight, and treated as indicated. After colony formation (8-12 days), cells were stained with crystal violet and the number of colonies was determined using ImageQuantTL (GE Health Care Life Sciences).

Assay [2] has as its system DU145 cells. Nature of the assay: Scratch assay and transwell migration assay. To be noted: SRI 31215 10 μM, JNJ 38877605 1 μM; for fibroblast-induced migration: 18Co or WI38 conditioned media. The class given is cell-based. How it is done: Cancer cells were seeded in 12-well plates and allowed to reach confluence. Following overnight serum-starvation, a scratch/wound was introduced into the cell monolayer with a sterile tip. Cells were cultured in serum-free media or were treated with recombinant HGF (10 ng/ml) or serum-free conditioned media from fibroblasts (50%) in the presence or absence of SRI 31215 or JNJ 38877605. Images of migrating cells were captured at 0, 12 and 24 hours after the treatment.
Cytoselect cell migration assay kit was purchased from Cell Biolabs, Inc and the assay was performed according to the manufacturer's instructions. Briefly, DU145 cells (75×10^3) were seeded in transwells ([…] inserts) in serum-free media and were stimulated with recombinant HGF or with conditioned media from 18Co or WI38 fibroblasts (in the absence or the presence of SRI 31215 or JNJ 38877605). Cells were incubated for 12 hours and non-migratory cells were gently removed from inside of the inserts. Inserts were stained for 10 minutes at room temperature, transferred to wells containing 200 μl of extraction buffer and incubated for 10 minutes on a shaker. The optical density (OD) was measured at 560 nm.

The test system of assay [3] is DiFi cells. Description: Proliferation of DiFi cells induced by HGF or fibroblast conditioned medium. The class given is cell-based. The settings on record: 48 hours; for fibroblast-induced proliferation: fibroblast conditioned medium. Here is the method:
Cell lysates from EBC cells were used as control for pMET. B. DiFi cells were cultured in the presence of
HGF or fibroblast conditioned medium in the absence or the presence of JNJ38877605 or SRI 31215 for 48 hours. Neutralization of HGF
in fibroblast conditioned medium by anti-HGF antibodies inhibits growth promoting activity of fibroblasts (data not shown). […]

For assay [4], the system named is DU145 cells. Description: EMT markers E-cadherin and vimentin (immunofluorescence, immunoblotting). The class given is cell-based. To be noted: 24 hours, SRI 31215 10 μM, JNJ 38877605 1 μM; for fibroblast-induced expression of vimentin / fibroblast-induced inhibition of E-cadherin: 18Co conditioned media. Here is the method: Figure 3 SRI 31215 inhibits fibroblast-induced EMT in DU145 cells Cells were stimulated with HGF or 18Co conditioned media for 24 hours in the absence or presence of SRI 31215 (10 μM) or JNJ 38877605 (1 μM) as indicated. The expression of E-cadherin was monitored by immunofluorescence A. The levels of E-cadherin and vimentin were also determined by immunoblotting B.
Immunoblotting was performed using standard procedures. Membranes were blocked with 5% non-fat milk for 1 hour at RT, and incubated with primary antibodies overnight at 4°C. Primary antibodies used were anti-HGF (R&D Systems), anti-MET, anti-p-MET, anti-p-GAB1, anti-p-AKT, anti-p-ERK1/2, anti-vimentin (Cell Signaling Technology), anti-p-STAT3 (Upstate Cell Signaling Solutions), anti-E-cadherin (BD Transduction Laboratories), anti-β-actin (Sigma). Following washing with TBS-T buffer, membranes were incubated with horseradish peroxidase-conjugated secondary antibodies for 1 hour and then washed with TBS-T. Immunoblots were developed using the chemiluminescent detection system with ECL (Amersham). Protein loading was normalized by probing blots for the expression of β-actin.
Cells were seeded at 1×10^3 cells per well in chamber slides. Following overnight serum-starvation, cells were treated with recombinant HGF (10 ng/ml) or conditioned media prepared from fibroblasts (50%) in the presence or absence of SRI 31215 (10 μM) or JNJ 38877605 (1 μM) for 24 hours. Cells were washed with PBS, fixed in ice-cold methanol/acetic acid solution [95:5 (v/v)] for 20 minutes at-20°C and incubated with anti-E-cadherin antibodies overnight at 4°C. Slides were washed with PBS, incubated with Alexa Fluor 568 conjugated secondary antibody for 1 hour at 37°C and examined with a fluorescent microscope.

A further assay deals with T1, recombinant human HGFA (Homo sapiens, UniProt Q04756).
T1 construct: purchased R&D Systems
T1 sequence (Q04756 408-655 limits assumed): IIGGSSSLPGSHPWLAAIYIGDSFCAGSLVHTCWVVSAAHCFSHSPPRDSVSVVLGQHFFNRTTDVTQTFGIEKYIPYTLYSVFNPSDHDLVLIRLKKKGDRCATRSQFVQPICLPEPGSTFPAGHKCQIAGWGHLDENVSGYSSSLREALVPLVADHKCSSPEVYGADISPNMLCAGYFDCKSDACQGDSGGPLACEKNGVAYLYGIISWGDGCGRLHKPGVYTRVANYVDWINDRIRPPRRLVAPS
T1 sequence (Q04756 373-407 partner limits assumed): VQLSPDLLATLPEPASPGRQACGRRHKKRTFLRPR
Description: Proteolytic activation of pro-HGF by HGFA (immunoblotting). The class given is biochemical. To be noted: SRI 31215 10 μM, HAI-1 20 nM, HGFA 1 nM. Here is the method: Recombinant human HAI-1, recombinant human HGFA, and recombinant human HGF propeptide (pro-HGF) were purchased from R&D Systems. SRI 31215 (10 μM) or recombinant human HAI-1 (20 nM) were mixed with activated recombinant human HGFA pro-peptide (1nM) in TNC buffer (pH 8.0) and incubated at room temperature for 30 minutes. Recombinant human pro-HGF (40 ng) was added and incubated at 37°C for 1 hour. The reaction was stopped by SDS-PAGE gel sample buffer and samples were boiled and separated by 12% PAGE. Proteins were transferred onto nitrocellulose membrane, blocked with 5% milk and immunoblotted using antibodies that recognize pro-HGF as well as α and β chains of activated HGF.

In assay [5] the test system is DU145 cells. Nature of the assay: Cell scattering assay. To be noted: 24 hours, SRI 31215 10 μM; for fibroblast-induced cell scattering: 18Co conditioned media, JNJ 38877605 1 μM. The class given is cell-based. How it is done:
DU145 cells were cultured in 6-well tissue culture plates at a density of 1×10^3 cells per well. After colonies formed (6-8 days), cells were serum-starved overnight and were then treated with recombinant HGF (10 ng/ml) or with conditioned media from 18Co fibroblasts in the presence or absence of SRI 31215 (10 μM) or the MET kinase inhibitor JNJ 38877605 (1 μM) for 24 hours. Cells were washed with PBS and colonies were fixed and stained with 0.5% crystal violet solution in 6% glutaraldehyde.

`CC1CN(CC2CCN(Cc3ccccc3)CC2)C(=O)N(c2cccc(C(=N)N)c2)C1` (stereo not shown) [SRI 31215, 3-(3-((1-benzylpiperidin-4-yl)methyl)-5-methyl-2-oxotetrahydropyrimidin-1(2H)-yl)benzimidamide]: in the assay with DiFi cells [1], the “fibroblast-mediated resistance to gefitinib and cetuximab (viability)” value is reported as “prevent”. In the assay with DU145 cells [2], the fibroblast-induced migration entry is listed as “inhibited” and the HGF-induced migration result is on record as “did not interfere”. In the assay with DiFi cells [3], the “proliferation induced by recombinant, active HGF” value was “did not influence” and the fibroblast-induced proliferation entry is “as efficient as JNJ 38877605 in preventing”. In the assay on DU145 cells [4], the “fibroblast-induced expression of vimentin” value is reported as “prevented” and the “fibroblast-induced inhibition of E-cadherin” value is on record as “prevented”. In addition, the “HGFA-induced cleavage of pro-HGF into alpha and beta chains” value at recombinant human HGFA is “inhibited”. For the same compound, in the assay with DU145 cells [5], the fibroblast-induced cell scattering entry was “prevented” and the “scattering induced by active HGF” value is reported as “did not interfere”.

Consider `Cn1cc(-c2ccc3nnc(C(F)(F)c4ccc5ncccc5c4)n3n2)cn1` [JNJ 38877605, reference compound], for which, in the assay on DiFi cells [1], the “fibroblast-mediated resistance to gefitinib and cetuximab (viability)” value is “prevent”. For the same compound, in the assay on DU145 cells [2], the fibroblast-induced migration result is “completely prevented” and the HGF-induced migration entry was “completely prevented”. In the assay on DiFi cells [3], the “proliferation induced by recombinant, active HGF” value is “prevented” and the fibroblast-induced proliferation result was “prevented”. In addition, in the assay on DU145 cells [4], the “fibroblast-induced expression of vimentin” value was “prevented”, the “fibroblast-induced inhibition of E-cadherin” value is on record as “prevented” and the “expression of E-cadherin in HGF-treated cells” value is “restored”. In addition, the fibroblast-induced cell scattering result with DU145 cells [5] is on record as “prevented”.

The record behind these values is paper PMC5045412, “Inhibition of pro-HGF activation by SRI31215, a novel approach to block oncogenic HGF/MET signaling” (Oncotarget, 2016).
